Publication PMC5323493, “Synthesis and pre-clinical evaluation of a new class of high-affinity ^18F-labeled PSMA ligands for detection of prostate cancer by PET imaging” (European Journal of Nuclear Medicine and Molecular Imaging, 2016)
Where two headings read alike, the source gives them in different places. Marks after values point to notes of the source that are not given here. Values belong to the compound of their own block, whether it stands above or below them.

How the values were obtained:
LNCaP xenograft tumor [1] = settings: cited from earlier work
PSMA = target: T1, PSMA (Homo sapiens, UniProt Q04609); assay: competitive binding assay against 99mTc-MIP-1427 on LNCaP cells; settings: non-radioactive ligands, 1 nM 99mTc-MIP-1427, 1 h
T1 construct: host or cells: LNCaP
Experimental: The human prostate cancer cell line, LNCaP, was obtained from the American Type Culture Collection. Cell culture supplies were from Invitrogen unless otherwise noted. LNCaP cells were maintained in RPMI-1640 medium supplemented with 10 % fetal bovine serum (Hyclone), 4 mM L-glutamine, 1 mM sodium pyruvate, 10 mM N-2-hydroxyethylpiperazine-N-2-ethanesulfonic acid (HEPES), 2.5 mg/mL D-glucose, and 50 μg/mL gentamicin in a humidified incubator at 37 °C/5 % CO2. Cells were removed from flasks for passage or for transfer to 12-well assay plates by incubating them with 0.25 % trypsin/ethylenediaminetetraacetic acid (EDTA).
The 50 % inhibition concentrations (IC50 ) values of the non-radioactive fluorine-containing ligands were determined by screening in a multi-concentration competitive binding assay against ^99mTc- ((7S,12S,16S)-1-(1-(carboxymethyl)-1H-imidazol-2-yl)-2-((1-(carboxymethyl)-1H-imidazol-2-yl)methyl)-9,14-dioxo-2,8,13,15-tetraazaoctadecane-7,12,16,18-tetracarboxylic acid technetium tricarbonyl complex; ^99mTc-MIP-1427) for binding to PSMA on LNCaP cells, according to methods previously described. The LNCaP cells were plated 48 hours prior to the experiment to achieve a density of approximately 5 x 10^5 cells/well (in triplicate) in RPMI-1640 medium supplemented with 0.25 % bovine serum albumin prior to performing the assay. LNCaP cells were incubated for 1 hour with 1 nM ^99mTc-MIP-1427 in serum-free RPMI-1640 medium in the presence of 1–10,000 nM test compounds. Radioactive incubation media was then removed by pipette and the cells were washed twice using 1 mL of ice-cold HEPES buffer. Cells were harvested from the plates and transferred to tubes for radioactive counting using a Packard Cobra II gamma counter. IC50 values were determined by non-linear regression using GraphPad Prism software.

LNCaP xenograft tumor [2] = assay: μPET/CT imaging of LNCaP xenograft tumor-bearing mice; assay type: in vivo; settings: for route of clearance: from μPET/CT images; for Max. LNCaP Tumor Uptake Time p.i.: image derived; for Max. LNCaP Tumor Uptake: image derived calculation (ROI), at time of maximum uptake
Description: (§1) All animal studies were approved by the Institutional Animal Care and Use Committee of Weill Cornell Medicine and were undertaken in accordance with the guidelines set forth by the USPHS Policy on Humane Care and Use of Laboratory Animals. Animals were housed under standard conditions in approved facilities with 12-h light/dark cycles. Food and water was provided ad libitum throughout the course of the studies. Male inbred athymic nu/nu mice were purchased from The Jackson Laboratory. For inoculation in mice, LNCaP cells were suspended at 4 x 10^7 cells/mL in a 1:1 mixture of PBS:Matrigel (BD Biosciences). Each mouse was injected in the left flank with 0.25 mL of the cell suspension. The mice were imaged when the tumors reached approximately 200–400 mm^3, while biodistributions were conducted when tumors were in the range 100–400 mm^3.
Specific activity was greater than 190 GBq/μmol. The mice were imaged by μPET/CT (Inveon™; Siemens Medical Solutions, Inc.) at 1 h, 2 h, 4 h and 6 h p.i. ([^18F]fluorinated compounds) or 1 h and 3 h p.i. ([^68Ga]Ga-PSMA-HBED-CC). Total acquisition time was thirty minutes, and a CT scan was obtained either immediately before or immediately after the acquisition for both anatomical co-registration and attenuation correction. The data were reconstructed using the commercial Inveon™ software supplied by the vendor. Tumor uptake was estimated by drawing a region of interest (ROI).

LNCaP xenograft tumor [3] = assay: ex vivo biodistribution in LNCaP xenograft tumor-bearing mice; settings: for tumor uptake / Max. LNCaP Tumor Uptake: n = 5; for tumor uptake relative to [68Ga]Ga-PSMA-HBED-CC: at the time of maximum tumor uptake; for Max. LNCaP Tumor Uptake Time p.i. / Max. LNCaP Tumor Uptake: biodistribution
Description: as §1
LNCaP xenograft tumor-bearing mice (n = 5 per time point) were injected via the tail vein with a bolus injection of 370 kBq (10 μCi) of either [^18F]RPS-040 or [^18F]RPS-041. The specific activity of the compounds was 341 GBq/μmol and 391 GBq/μmol, respectively. The mice were euthanized by asphyxiation under isofluorane at 1 h, 2 h and 4 h p.i. An additional set of mice (n = 5) was co-administered [^18F]RPS-040 (370 kBq; 10 μCi) and 2-PMPA (approx. 250 μg; 10 mg/kg) and sacrificed at 1 h p.i. to determine the uptake specificity. A full biodistribution study was conducted on all mice, and tissues were excised, weighed and counted in an automated γ-counter. Tissue time-activity values were expressed as percentage injected dose per gram of tissue (%ID/g). Statistical comparisons were performed using the standard Student’s t test for a 95 % confidence interval.

[4] = 1 h p.i., co-administered with 2-PMPA

T1 sequence (Q04609 whole entry): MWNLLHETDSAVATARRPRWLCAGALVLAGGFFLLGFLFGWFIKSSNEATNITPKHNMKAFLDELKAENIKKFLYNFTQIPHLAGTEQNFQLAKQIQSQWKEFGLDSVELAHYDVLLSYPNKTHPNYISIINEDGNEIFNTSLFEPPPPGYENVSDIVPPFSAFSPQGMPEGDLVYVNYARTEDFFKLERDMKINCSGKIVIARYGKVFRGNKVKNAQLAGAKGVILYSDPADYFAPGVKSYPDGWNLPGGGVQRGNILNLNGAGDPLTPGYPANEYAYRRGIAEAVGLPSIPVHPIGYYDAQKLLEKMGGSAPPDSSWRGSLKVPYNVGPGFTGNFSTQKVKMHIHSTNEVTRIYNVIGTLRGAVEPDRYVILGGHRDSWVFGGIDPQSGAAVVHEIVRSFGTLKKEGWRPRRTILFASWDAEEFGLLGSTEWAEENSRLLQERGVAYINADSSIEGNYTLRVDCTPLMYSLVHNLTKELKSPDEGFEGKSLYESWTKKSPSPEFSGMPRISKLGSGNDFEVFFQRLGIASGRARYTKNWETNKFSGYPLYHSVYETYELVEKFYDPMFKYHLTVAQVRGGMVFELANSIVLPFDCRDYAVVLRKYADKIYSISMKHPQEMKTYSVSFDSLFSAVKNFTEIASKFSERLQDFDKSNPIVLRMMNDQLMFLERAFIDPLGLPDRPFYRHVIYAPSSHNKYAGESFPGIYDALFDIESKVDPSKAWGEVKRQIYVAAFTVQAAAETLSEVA

Max. LNCaP Tumor Uptake Time p.i. (LNCaP xenograft tumor [2]): 2 h | Max. LNCaP Tumor Uptake (LNCaP xenograft tumor [2]): 10.06 ± 1.33^c %ID/g | IC50 (PSMA): 10.2 nM
Structure (SMILES): O=C(O)CC[C@H](NC(=O)N[C@@H](CCCCNC(=O)Nc1ccccc1-c1cn(CCF)nn1)C(=O)O)C(=O)O [RPS-042]
route of clearance (LNCaP xenograft tumor [2]): clearance via the hepatobiliary pathway in addition to renal excretion

Max. LNCaP Tumor Uptake (LNCaP xenograft tumor [2]): 14.30 %ID/g | IC50 (PSMA): 7 nM | tumor-to-blood ratio (LNCaP xenograft tumor [3]; 1 h p.i.): 28.8 ± 8.06 | tumor-to-blood ratio relative to [68Ga]Ga-PSMA-HBED-CC (LNCaP xenograft tumor [3]; 1 h p.i.): three-fold greater | tumor-to-kidney ratio relative to [68Ga]Ga-PSMA-HBED-CC (LNCaP xenograft tumor [3]; 1 h p.i.): ten | kidneys uptake (LNCaP xenograft tumor [3]; [4]): 5.95 ± 1.65 %ID/g | spleen uptake (LNCaP xenograft tumor [3]; [4]): 0.32 ± 0.05 %ID/g | tumor uptake (LNCaP xenograft tumor [3]; 1 h p.i., co-administered with 2-PMPA (10 mg/kg)): 1.75 ± 0.15 %ID/g | kidneys uptake (LNCaP xenograft tumor [3]; 1 h p.i., unblocked): 74.24 ± 10.71 %ID/g | spleen uptake (LNCaP xenograft tumor [3]; 1 h p.i., unblocked): 4.97 ± 1.55 %ID/g | tumor uptake (LNCaP xenograft tumor [3]; 1 h p.i., unblocked): 12.69 ± 1.56 %ID/g | uptake in the kidneys (LNCaP xenograft tumor [3]; 2 h p.i.): 60.94 ± 8.06 %ID/g | uptake in the liver (LNCaP xenograft tumor [3]; 2 h p.i.): 4.72 ± 0.93 %ID/g | uptake in the spleen (LNCaP xenograft tumor [3]; 2 h p.i.): 3.23 ± 1.26 %ID/g | tumor-to-blood ratio (LNCaP xenograft tumor [3]; 4 h p.i.): 92.93 ± 75.67 | tumor uptake relative to [68Ga]Ga-PSMA-HBED-CC (LNCaP xenograft tumor [3]): more than two-fold greater | Max. LNCaP Tumor Uptake Time p.i. (LNCaP xenograft tumor [3]): 2 h | Max. LNCaP Tumor Uptake (LNCaP xenograft tumor [3]; 2 h p.i.): 14.30 ± 2.49 %ID/g | Max. LNCaP Tumor Uptake (LNCaP xenograft tumor [3]; 2 h p.i., listed as [^18F]RPS-040): > 10 %ID/g
Structure (SMILES): O=C(O)CC[C@H](NC(=O)N[C@@H](CCCCNC(=O)Nc1cccc(-c2cn(CCF)nn2)c1)C(=O)O)C(=O)O [RPS-040]

Max. LNCaP Tumor Uptake Time p.i. (LNCaP xenograft tumor [2]): 2 h | Max. LNCaP Tumor Uptake (LNCaP xenograft tumor [2]): 9.04 ± 1.88^c %ID/g | IC50 (PSMA): 36.5 nM
Structure (SMILES): O=C(O)CC[C@H](NC(=O)N[C@@H](CCCCNC(=O)Nc1cccc(OCc2cn(CCF)nn2)c1)C(=O)O)C(=O)O [RPS-043]

Max. LNCaP Tumor Uptake (LNCaP xenograft tumor [2]): 12.51 %ID/g | IC50 (PSMA): 3.2 nM | tumor-to-blood ratio (LNCaP xenograft tumor [3]; 1 h p.i.): 20.78 ± 7.87 | tumor-to-blood ratio relative to [68Ga]Ga-PSMA-HBED-CC (LNCaP xenograft tumor [3]; 1 h p.i.): more than two-fold | tumor-to-kidney ratio relative to [68Ga]Ga-PSMA-HBED-CC (LNCaP xenograft tumor [3]; 1 h p.i.): twelve-fold greater | contrast (tumor-to-background) relative to [18F]RPS-040 (LNCaP xenograft tumor [3]; 2 h p.i.): two-fold greater | uptake in the kidneys (LNCaP xenograft tumor [3]; 2 h p.i.): 23.93 ± 5.45 %ID/g | uptake in the liver (LNCaP xenograft tumor [3]; 2 h p.i.): 2.51 ± 0.21 %ID/g | uptake in the spleen (LNCaP xenograft tumor [3]; 2 h p.i.): 1.13 ± 0.47 %ID/g | tumor-to-blood ratio (LNCaP xenograft tumor [3]; 4 h p.i.): 118.4 ± 69.4 | tumor uptake relative to [68Ga]Ga-PSMA-HBED-CC (LNCaP xenograft tumor [3]): nearly two-fold greater | Max. LNCaP Tumor Uptake Time p.i. (LNCaP xenograft tumor [3]): 2 h | Max. LNCaP Tumor Uptake (LNCaP xenograft tumor [3]; 2 h p.i.): 10.86 ± 1.03 %ID/g | Max. LNCaP Tumor Uptake (LNCaP xenograft tumor [3]; 2 h p.i., listed as [^18F]RPS-041): > 10 %ID/g
Structure (SMILES): O=C(O)CC[C@H](NC(=O)N[C@@H](CCCCNC(=O)Nc1ccc(-c2cn(CCF)nn2)cc1)C(=O)O)C(=O)O [RPS-041]

Further lines, the compound ahead of its results:

Structure (SMILES): O=C(O)CC[C@H](NC(=O)N[C@@H](CCCCNC(=O)Nc1ccc(I)cc1)C(=O)O)C(=O)O [MIP-1095]
Max. LNCaP Tumor Uptake (LNCaP xenograft tumor [1]): 34.3 ± 12.7^a %ID/g | Max. LNCaP Tumor Uptake Time p.i. (LNCaP xenograft tumor [1]): 4 h | IC50 (PSMA): 0.3 nM

Structure (SMILES): O=C(O)CC[C@H](NC(=O)N[C@@H](CCCCNC(=O)Nc1ccccc1OCc1cn(CCF)nn1)C(=O)O)C(=O)O [RPS-039]
route of clearance (LNCaP xenograft tumor [2]): clearance via the hepatobiliary pathway in addition to renal excretion | Max. LNCaP Tumor Uptake Time p.i. (LNCaP xenograft tumor [2]): 2 h | Max. LNCaP Tumor Uptake (LNCaP xenograft tumor [2]): 5.89 ± 0.27^c %ID/g | IC50 (PSMA): 14 nM

Structure (SMILES): O=C(O)CCC(NC(=O)NC(CCCCNC(=O)c1ccc([18F])nc1)C(=O)O)C(=O)O (centres unmarked) [DCFPyL, 2-(3-{1-carboxy-5-[(6-[18F]fluoro-pyridine-3-carbonyl)-amino]-pentyl}-ureido)-pentanedioic acid, reference compound]
Max. LNCaP Tumor Uptake Time p.i. (LNCaP xenograft tumor [2]): 1 h | Max. LNCaP Tumor Uptake (LNCaP xenograft tumor [2]): 5.71 ± 0.61^c %ID/g | maximum standardized uptake value (SUVmax) (LNCaP xenograft tumor [1]; LNCaP tumor xenografts, 1 h p.i.): 1.1 ± 0.1

Structure (SMILES): O=C(O)CC[C@H](NC(=O)N[C@@H](CCCCNC(=O)Nc1ccc(OCc2cn(CCF)nn2)cc1)C(=O)O)C(=O)O [RPS-038]
Max. LNCaP Tumor Uptake Time p.i. (LNCaP xenograft tumor [2]): 2 h | Max. LNCaP Tumor Uptake (LNCaP xenograft tumor [2]): 8.87 ± 0.64^c %ID/g | IC50 (PSMA): 21.3 nM
